The text below walks through data of ChEMBL document CHEMBL1221208, “ATP-competitive inhibitors of the mitotic kinesin KSP that function via an allosteric mechanism” (Nat Chem Biol, 2007).

Experiment [1] concerns the target T1, Kinesin-like protein KIF2C (Homo sapiens) (UniProt Q99661).
T1 sequence (whole entry): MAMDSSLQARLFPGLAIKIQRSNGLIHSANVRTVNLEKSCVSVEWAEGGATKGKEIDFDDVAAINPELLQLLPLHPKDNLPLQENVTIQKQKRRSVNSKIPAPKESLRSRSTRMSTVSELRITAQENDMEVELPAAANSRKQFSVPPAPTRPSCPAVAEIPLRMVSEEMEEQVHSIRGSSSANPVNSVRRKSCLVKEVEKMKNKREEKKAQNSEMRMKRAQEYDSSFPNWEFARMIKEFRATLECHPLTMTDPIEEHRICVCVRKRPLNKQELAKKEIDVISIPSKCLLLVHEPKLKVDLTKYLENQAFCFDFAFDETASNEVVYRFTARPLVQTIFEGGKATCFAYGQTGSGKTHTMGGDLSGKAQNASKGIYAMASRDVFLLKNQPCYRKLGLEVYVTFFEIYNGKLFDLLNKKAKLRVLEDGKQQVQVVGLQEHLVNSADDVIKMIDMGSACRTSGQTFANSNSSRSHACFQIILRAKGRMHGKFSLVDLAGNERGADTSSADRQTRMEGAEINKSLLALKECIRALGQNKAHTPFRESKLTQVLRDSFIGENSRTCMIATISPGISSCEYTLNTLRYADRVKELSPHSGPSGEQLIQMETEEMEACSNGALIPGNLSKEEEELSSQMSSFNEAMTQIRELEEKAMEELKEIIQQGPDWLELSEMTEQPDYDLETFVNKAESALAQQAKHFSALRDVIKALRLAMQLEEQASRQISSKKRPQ
Description: Inhibition of MCAK at 10 uM by puruvate kinsase-lactate dehydrogenase detection system.

Experiment [2] addresses Kinesin-like protein KIF1A (Homo sapiens) (UniProt Q12756). Description: Inhibition of Kif1A at 10 uM by puruvate kinsase-lactate dehydrogenase detection system.
The target of experiment [3] is T2, Kinesin-like protein KIF23 (Homo sapiens) (UniProt Q02241).
T2 sequence (whole entry): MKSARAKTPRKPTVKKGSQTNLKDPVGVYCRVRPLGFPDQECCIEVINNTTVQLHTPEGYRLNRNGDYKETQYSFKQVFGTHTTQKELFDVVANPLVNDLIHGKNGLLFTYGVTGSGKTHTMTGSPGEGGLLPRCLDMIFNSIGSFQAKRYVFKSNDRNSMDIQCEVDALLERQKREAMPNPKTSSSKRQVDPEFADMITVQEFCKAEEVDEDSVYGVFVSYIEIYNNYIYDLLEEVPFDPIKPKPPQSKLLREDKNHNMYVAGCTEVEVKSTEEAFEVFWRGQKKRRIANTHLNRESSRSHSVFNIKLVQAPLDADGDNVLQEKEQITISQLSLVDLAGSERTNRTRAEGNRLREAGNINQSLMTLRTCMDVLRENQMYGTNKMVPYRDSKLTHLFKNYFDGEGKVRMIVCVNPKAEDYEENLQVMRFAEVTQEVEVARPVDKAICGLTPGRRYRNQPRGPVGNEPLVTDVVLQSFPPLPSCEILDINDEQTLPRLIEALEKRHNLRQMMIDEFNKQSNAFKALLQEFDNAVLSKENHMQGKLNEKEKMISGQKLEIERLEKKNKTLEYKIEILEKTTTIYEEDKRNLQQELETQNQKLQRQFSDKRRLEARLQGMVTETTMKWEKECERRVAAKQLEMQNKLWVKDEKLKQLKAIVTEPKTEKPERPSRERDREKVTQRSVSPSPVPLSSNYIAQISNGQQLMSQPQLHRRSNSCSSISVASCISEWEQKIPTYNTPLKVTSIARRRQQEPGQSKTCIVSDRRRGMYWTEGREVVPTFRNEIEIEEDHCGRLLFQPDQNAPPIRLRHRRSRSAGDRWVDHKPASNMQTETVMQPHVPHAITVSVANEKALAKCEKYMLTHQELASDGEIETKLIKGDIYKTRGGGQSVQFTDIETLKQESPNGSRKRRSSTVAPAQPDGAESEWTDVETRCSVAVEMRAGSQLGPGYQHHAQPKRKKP
Put plainly: Inhibition of MKLP1 at 10 uM by puruvate kinsase-lactate dehydrogenase detection system.

Experiment [4] addresses T3, Kinesin-like protein KIFC1 (Homo sapiens) (UniProt Q9BW19).
T3 sequence (whole entry): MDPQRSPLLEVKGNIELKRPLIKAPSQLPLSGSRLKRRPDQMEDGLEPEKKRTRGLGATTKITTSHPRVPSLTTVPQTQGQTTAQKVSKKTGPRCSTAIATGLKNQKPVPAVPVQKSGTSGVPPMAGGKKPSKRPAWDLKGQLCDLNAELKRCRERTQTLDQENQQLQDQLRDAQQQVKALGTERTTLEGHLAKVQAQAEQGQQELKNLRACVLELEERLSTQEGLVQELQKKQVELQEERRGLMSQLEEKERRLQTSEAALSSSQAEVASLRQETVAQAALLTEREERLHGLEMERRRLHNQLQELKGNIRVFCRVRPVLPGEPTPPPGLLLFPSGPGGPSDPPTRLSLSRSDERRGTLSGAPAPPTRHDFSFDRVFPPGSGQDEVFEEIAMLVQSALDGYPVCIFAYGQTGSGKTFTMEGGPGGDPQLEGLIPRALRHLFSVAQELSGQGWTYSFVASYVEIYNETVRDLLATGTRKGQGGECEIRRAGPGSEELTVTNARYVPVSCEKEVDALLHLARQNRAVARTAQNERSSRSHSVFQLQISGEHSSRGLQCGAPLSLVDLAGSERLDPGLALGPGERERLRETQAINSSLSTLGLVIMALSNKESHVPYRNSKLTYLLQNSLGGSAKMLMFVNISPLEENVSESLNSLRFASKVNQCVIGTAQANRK
Description: Inhibition of HSET at 10 uM by puruvate kinsase-lactate dehydrogenase detection system.

The target in experiment [5] is Centromere-associated protein E (Homo sapiens) (UniProt Q02224). Description: Inhibition of CENPE at 10 uM by puruvate kinsase-lactate dehydrogenase detection system.
Centromere-associated protein E (Homo sapiens), sequence (Q02224 whole entry): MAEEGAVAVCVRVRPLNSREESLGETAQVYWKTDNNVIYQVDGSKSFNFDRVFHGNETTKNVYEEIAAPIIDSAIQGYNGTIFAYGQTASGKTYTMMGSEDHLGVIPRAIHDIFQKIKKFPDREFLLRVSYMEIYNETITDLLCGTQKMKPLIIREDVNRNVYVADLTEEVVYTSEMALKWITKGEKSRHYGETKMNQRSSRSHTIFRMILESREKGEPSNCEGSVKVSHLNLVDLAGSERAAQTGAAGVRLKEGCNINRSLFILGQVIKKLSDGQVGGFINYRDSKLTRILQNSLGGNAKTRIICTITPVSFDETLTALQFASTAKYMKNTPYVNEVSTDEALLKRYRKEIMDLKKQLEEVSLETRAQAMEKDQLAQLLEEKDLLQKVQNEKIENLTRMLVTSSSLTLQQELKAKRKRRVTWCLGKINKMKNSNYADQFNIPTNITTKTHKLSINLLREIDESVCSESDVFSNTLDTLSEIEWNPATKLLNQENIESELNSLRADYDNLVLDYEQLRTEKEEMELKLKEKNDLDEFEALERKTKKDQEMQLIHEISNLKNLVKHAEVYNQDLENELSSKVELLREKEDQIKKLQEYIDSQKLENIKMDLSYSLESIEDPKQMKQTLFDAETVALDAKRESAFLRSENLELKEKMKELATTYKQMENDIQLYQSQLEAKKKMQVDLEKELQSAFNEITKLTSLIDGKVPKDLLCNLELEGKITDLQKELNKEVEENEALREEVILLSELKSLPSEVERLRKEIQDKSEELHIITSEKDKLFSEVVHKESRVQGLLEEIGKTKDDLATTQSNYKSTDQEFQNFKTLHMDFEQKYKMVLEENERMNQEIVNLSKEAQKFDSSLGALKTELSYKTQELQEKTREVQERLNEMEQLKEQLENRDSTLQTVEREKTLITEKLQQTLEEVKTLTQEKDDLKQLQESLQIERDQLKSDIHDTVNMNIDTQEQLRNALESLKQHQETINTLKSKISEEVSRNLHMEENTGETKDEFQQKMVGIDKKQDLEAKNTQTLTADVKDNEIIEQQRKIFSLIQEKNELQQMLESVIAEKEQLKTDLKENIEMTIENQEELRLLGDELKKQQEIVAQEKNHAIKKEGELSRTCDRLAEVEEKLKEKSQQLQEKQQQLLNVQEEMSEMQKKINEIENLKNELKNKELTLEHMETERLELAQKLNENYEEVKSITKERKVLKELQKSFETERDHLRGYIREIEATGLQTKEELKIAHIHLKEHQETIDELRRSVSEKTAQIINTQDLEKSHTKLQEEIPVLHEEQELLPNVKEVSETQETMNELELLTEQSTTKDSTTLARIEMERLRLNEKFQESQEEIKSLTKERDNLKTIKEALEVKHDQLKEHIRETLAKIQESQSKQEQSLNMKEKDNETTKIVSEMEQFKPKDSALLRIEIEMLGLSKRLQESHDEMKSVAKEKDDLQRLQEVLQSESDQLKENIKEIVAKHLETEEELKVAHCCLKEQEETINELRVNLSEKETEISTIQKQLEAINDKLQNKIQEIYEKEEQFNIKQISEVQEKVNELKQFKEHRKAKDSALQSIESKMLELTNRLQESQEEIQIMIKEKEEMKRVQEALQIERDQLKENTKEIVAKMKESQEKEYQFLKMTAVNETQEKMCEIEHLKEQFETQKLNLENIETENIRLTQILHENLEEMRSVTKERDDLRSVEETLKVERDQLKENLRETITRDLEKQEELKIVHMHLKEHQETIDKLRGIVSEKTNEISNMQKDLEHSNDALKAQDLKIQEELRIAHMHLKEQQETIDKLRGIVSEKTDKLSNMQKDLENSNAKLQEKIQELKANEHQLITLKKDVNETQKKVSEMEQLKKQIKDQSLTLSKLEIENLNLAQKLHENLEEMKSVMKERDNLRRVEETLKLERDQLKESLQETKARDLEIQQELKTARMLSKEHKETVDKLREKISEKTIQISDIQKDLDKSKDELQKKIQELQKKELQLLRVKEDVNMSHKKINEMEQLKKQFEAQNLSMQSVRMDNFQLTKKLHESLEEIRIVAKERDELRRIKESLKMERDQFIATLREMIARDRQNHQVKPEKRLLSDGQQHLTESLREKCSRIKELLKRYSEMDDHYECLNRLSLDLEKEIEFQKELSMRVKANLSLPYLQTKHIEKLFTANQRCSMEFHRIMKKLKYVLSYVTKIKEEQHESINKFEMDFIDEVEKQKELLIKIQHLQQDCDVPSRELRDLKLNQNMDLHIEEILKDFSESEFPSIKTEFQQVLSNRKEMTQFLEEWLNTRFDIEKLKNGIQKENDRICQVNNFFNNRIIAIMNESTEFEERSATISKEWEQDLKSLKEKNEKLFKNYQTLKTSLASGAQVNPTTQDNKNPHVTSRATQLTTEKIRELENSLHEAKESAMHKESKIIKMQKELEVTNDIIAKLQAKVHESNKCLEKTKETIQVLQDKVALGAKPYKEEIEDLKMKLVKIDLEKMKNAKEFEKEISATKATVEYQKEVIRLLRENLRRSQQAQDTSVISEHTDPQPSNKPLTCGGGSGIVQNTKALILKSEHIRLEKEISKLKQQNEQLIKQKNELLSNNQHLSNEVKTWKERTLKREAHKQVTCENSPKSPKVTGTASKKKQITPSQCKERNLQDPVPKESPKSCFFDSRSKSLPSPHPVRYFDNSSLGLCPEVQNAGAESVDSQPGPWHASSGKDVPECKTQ

Each structure is given as a SMILES string.

Kinesin-like protein KIF1A (Homo sapiens), sequence (Q12756 whole entry): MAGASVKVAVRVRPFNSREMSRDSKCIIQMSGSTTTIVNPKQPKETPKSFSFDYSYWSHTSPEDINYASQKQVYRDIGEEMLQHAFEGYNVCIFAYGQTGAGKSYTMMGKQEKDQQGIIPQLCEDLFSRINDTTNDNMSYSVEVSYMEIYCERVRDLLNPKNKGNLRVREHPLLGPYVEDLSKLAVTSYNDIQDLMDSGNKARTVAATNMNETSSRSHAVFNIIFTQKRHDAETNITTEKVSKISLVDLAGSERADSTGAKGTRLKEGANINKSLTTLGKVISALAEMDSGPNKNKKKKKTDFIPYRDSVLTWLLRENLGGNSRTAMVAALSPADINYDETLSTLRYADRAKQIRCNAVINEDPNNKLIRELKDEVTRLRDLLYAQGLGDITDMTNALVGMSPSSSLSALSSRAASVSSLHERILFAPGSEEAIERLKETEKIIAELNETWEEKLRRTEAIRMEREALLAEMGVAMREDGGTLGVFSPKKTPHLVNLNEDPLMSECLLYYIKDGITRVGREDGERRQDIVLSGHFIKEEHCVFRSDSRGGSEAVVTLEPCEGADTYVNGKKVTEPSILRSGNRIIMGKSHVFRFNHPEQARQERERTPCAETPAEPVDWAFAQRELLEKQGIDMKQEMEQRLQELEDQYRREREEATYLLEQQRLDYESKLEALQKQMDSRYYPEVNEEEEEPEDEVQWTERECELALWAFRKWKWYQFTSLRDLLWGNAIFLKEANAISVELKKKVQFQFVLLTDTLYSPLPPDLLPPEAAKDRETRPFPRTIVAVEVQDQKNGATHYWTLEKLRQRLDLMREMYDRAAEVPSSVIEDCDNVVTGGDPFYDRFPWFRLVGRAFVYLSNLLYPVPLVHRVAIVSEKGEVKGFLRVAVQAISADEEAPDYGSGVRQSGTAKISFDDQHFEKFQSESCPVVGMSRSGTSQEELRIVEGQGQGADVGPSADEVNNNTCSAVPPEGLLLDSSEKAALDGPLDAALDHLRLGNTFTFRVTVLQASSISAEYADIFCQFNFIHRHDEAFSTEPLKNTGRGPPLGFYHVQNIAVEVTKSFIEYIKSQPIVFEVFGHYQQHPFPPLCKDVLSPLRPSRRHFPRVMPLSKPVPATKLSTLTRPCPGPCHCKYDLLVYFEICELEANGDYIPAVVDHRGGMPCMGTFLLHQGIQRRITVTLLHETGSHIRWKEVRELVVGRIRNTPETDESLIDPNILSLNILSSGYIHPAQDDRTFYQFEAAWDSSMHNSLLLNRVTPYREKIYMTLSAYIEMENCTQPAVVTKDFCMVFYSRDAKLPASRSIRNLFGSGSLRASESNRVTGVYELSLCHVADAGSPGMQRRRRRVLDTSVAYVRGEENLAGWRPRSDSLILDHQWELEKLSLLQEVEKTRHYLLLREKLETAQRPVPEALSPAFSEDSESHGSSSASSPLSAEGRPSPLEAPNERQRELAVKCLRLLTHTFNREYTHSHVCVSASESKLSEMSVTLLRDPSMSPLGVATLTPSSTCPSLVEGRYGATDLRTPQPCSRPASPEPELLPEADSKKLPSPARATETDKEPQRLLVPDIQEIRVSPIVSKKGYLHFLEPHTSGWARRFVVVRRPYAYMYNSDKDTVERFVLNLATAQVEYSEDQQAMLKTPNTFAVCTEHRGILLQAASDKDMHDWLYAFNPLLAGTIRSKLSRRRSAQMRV

For `Cc1ccc(C(=O)N(CCCN)[C@@H](c2nc3cc(Cl)ccc3c(=O)n2Cc2ccccc2)C(C)C)cc1`, the inhibition – broadly, the share of the control response that was lost under treatment – in experiment [1] turned out to be 8.2%; in experiment [2], 8.2%; in experiment [3], 7.1%; in experiment [4], 4.2%; in experiment [5], 7%.
For `NC(=O)Nc1ccc(-c2ccc(C(F)(F)F)cc2)cc1F`, the inhibition in experiment [1] amounted to 6.9%; in experiment [2] it was 12.8%; in experiment [3], 9.4%; in experiment [4], 2.6%; in experiment [5], 11%.
The like results for `O=C1CCc2cc(-c3ccc(C(F)(F)F)cc3)ccc2N1` were, in that order, 8.4%, 8.9%, 7.7%, 4.1% and 9%.
